Results published in US11274082B2, “Tead inhibitors and uses thereof” (Ikena Oncology, Inc., priority 2019, dated 2022).
Where two headings read alike, the source gives them in different places.

Columns and labels:
TEAD = TEAD reporter assay (Hippo Pathway TEAD Reporter - MCF7 cell line, luciferase); format: cell-based; settings: Homo sapiens
Text: TEAD inhibition can be assayed using Hippo Pathway TEAD Reporter—MCF7 Cell Line (BPS Bioscience, Catalog #: 60618).
The TEAD Reporter—MCF7 cell line contains the firefly luciferase gene under the control of TEAD responsive elements stably integrated into the human breast cancer cell line, MCF7. Inside the cells, basal unphosphorylated YAP/TAZ remains in the nucleus and induces the constitutive expression of luciferase reporter. The cell line is validated for the inhibition of the expression of luciferase reporter by the activators of the Hippo pathway.
• 1) Harvest TEAD Reporter—MCF7 cells from culture in growth medium and seed cells at a density of 35,000 cells per well into white clear-bottom 96-well microplate in 45 μl of assay medium. • 2) Incubate cells at 37° C. in a CO2 incubator for overnight. • 3) Dilute the activators (H2O2 or okadaic acid) stock in assay medium. Add 5 μl of diluted activators to the wells. The final concentration of DMSO in assay medium is 0.1%. • 4) Add 5 μl of assay medium with same concentration of DMSO without activator to control wells. • 5) Add 50 μl of assay medium with DMSO to cell-free control wells (for determining background luminescence). • 6) Set up each treatment in at least triplicate. • 7) Incubate cells at 37° C. in a CO2 incubator for 5-6 hours. • 8) Perform luciferase assay using the ONE-Step™ Luciferase Assay System following the protocol provided: Add 100 μl of ONE-Step™ Luciferase reagent per well and rock at room temperature for ˜15 minutes. Measure luminescence using a luminometer. • 9) Data Analysis: Obtain the background-subtracted luminescence by subtracting the average background luminescence (cell-free control wells) from the luminescence reading of all wells.
(§1) Certain compounds were tested in TEAD reporter assay, and in H226 and H28. A: EC50<0.1 uM; B: 0.1 uM≤EC50≤0.5 uM; C: EC50>0.5 uM.

H226 = assay: Anti-proliferation assay in H226 cells; format: cell-based; settings: Homo sapiens
Procedure: as §1
(§2) Individual cell lines were grown in medium according to supplier instructions and seeded into 96-well plates at a density that ensured logarithmic growth over 72 hours. TEAD inhibitor compounds were administered to cells at a top concentration of 10 μm and subsequently a 10 point 3-fold serial dilution was conducted. After 72 hours, proliferation was quantified using Cell TITERGLO™ (Promega, Inc.) and compared to vehicle control. IC50 and EC50 values were generated using XLFit curve fitting software.

H28 = assay: Anti-proliferation assay in H28 cells; format: cell-based; settings: Homo sapiens, NCI-H28
Procedure: as §1, §2

[1] = Mouse pharmacokinetics study; format: in vivo; settings: BALB/c mice, 10 mg/kg by oral gavage in 5% DMS/95% PEG400, plasma
Procedure: Formulated compounds were administered intravenously or orally via gavage to BALB/c mice. Typically, at 0.167, 0.5, 1, 2, 4, 6, 12, and 24 hours post-dose, blood was collected and processed to plasma by centrifugation and stored at −80° C. until analysis. Internal standard was added to each sample prior to protein precipitation with acetonitrile or TCA. The precipitates were filtered through a filter plate and the samples were analyzed by LC/MS/MS. A standard curve was prepared in plasma from typically from 1.0 ng/mL to 3000 ng/mL and processed in the same manner as the samples. Sample analysis was typically performed on a suitable LC/MS/MS system fitted with an analytical UPLC column and compounds eluted from the analytical column with a gradient from 30-95% 0.1% formic acid (v/v) in ACN: 0.1% formic acid (v/v) in water. Mass spectrometric detection of test compound and the internal standard was performed by MRM in positive mode. The pharmacokinetics of each compound were analyzed by Phoenix WinNonlin software (Pharsight, St. Louis, Mo.) via noncompartmental analysis.

[2] = TEAD Reporter - MCF7 cells, read-out: TEAD Reporter Assay EC50
[3] = NCI-H226, H226 cells, read-out: H226 EC50

| SMILES | EC50 (TEAD; [2]) [µM] | EC50 (H226; [3]) [µM] | AUC(0-t) [1] [ng·h/mL] | Cmax [1] [ng/mL] | EC50 (H28) [nM] | EC50 (TEAD; MCF7, read-out: TEAD Reporter Assay EC50 (uM)) [µM] | EC50 (H226; NCI-H226, read-out: H226 EC50 (uM)) [µM] |
| --- | --- | --- | --- | --- | --- | --- | --- |
| CNS(=O)(=O)c1ccc(NCc2ccccc2)c(-c2nnn(C)n2)c1 [I-16, 4-(benzylamino)-N-methyl-3-(2-methyltetrazol-5-yl)benzenesulfonamide] | 0.1 to 0.5 | > 0.5 | – | – | > 500 | – | – |
| CNS(=O)(=O)c1ccc(NCc2ccccc2)c(-c2cn(C)cn2)c1 [I-27, 4-(Benzylamino)-N-methyl-3-(1-methylimidazol-4-yl)benzenesulfonamide] | < 0.1 | < 0.1 | 2250 | 1040 | > 500 | – | – |
| CNS(=O)(=O)c1ccc(N[C@H](C)c2ccccc2)c(-c2cn(C)cn2)c1 [I-30, N-Methyl-3-(1-methylimidazol-4-yl)-4-[[(1R)-1-phenylethyl]amino]benzenesulfonamide] | < 0.1 | < 0.1 | 887 | 882 | – | – | – |
| CNS(=O)(=O)c1ccc(Nc2cc(C(F)(F)F)ccn2)c(-c2cn(C)cn2)c1 [I-33, N-Methyl-3-(1-methylimidazol-4-yl)-4-[[4-(trifluoromethyl)-2-pyridyl]amino]benzenesulfonamide] | < 0.1 | < 0.1 | 731 | 420 | – | – | – |
| CNS(=O)(=O)c1cnc(Nc2cccc(C(F)(F)F)c2)c(-c2cn(C)cn2)c1 [I-36, N-Methyl-5-(1-methylimidazol-4-yl)-6-[3-(trifluoromethyl)anilino]pyridine-3-sulfonamide] | – | – | 595 | 213 | – | < 0.1 | < 0.1 |
| CCNS(=O)(=O)c1ccc(Nc2cc(C(F)(F)F)ccn2)c(-c2cn(C)cn2)c1 [I-37, N-Ethyl-3-(1-methylimidazol-4-yl)-4-[[4-(trifluoromethyl)-2-pyridyl]amino]benzenesulfonamide] | < 0.1 | < 0.1 | 521 | 351 | – | – | – |
| CNS(=O)(=O)c1ccc(Nc2cccc(C(F)(F)F)c2)c(-c2cn(C)cn2)c1 [P-12] | – | – | 2330 | 558 | – | – | – |

Further lines, with some results ahead:

| EC50 (TEAD; [2]) [µM] | EC50 (H226; [3]) [µM] | AUC(0-t) [1] [ng·h/mL] | Cmax [1] [ng/mL] | SMILES | EC50 (H28) [nM] | EC50 (TEAD; MCF7, read-out: TEAD Reporter Assay EC50 (uM)) [µM] | EC50 (H226; NCI-H226, read-out: H226 EC50 (uM)) [µM] |
| --- | --- | --- | --- | --- | --- | --- | --- |
| > 0.5 | > 0.5 | – | – | Cn1nnc(-c2cc(B(O)O)ccc2Nc2cccc(C(F)(F)F)c2)n1 [I-17, [3-(2-methyltetrazol-5-yl)-4-[3-(trifluoromethyl)anilino]phenyl]boronic acid] | > 500 | – | – |
| < 0.1 | < 0.1 | 2520 | 774 | CNS(=O)(=O)c1ccc(NCc2cccc(C(F)(F)F)c2)c(-c2cn(C)cn2)c1 [I-31, N-Methyl-3-(1-methyl-1H-imidazol-4-yl)-4-((3-(trifluoromethyl)benzyl)amino)benzenesulfonamide] | – | – | – |
| < 0.1 | < 0.1 | 4580 | 1090 | CNS(=O)(=O)c1ccc(NCc2ccc(C(F)(F)F)cc2)c(-c2cn(C)cn2)c1 [I-32, N-Methyl-3-(1-methyl-1H-imidazol-4-yl)-4-((4-(trifluoromethyl)benzyl)amino)benzenesulfonamide] | – | – | – |
| < 0.1 | < 0.1 | 25900 | 1620 | CNS(=O)(=O)c1ccc(Nc2ccc(C(F)(F)F)cn2)c(-c2cn(C)cn2)c1 [I-38, N-Methyl-3-(1-methylimidazol-4-yl)-4-[[5-(trifluoromethyl)-2-pyridyl]amino]benzenesulfonamide] | – | – | – |
| – | – | 622 | 210 | CNS(=O)(=O)c1ccc(Nc2cccc(C(F)(F)F)c2)c(-c2nnn(C)n2)c1 [P-14] | – | – | – |
